assay: Inhibition of Pseudomonas aeruginosa AmpC

| IC50 [µM] | SMILES |
| --- | --- |
| 43 | O=C(c1nc(-c2ccccc2)cs1)N1CCC(c2ccccn2)C1 (stereo in doubt; 2) |
| > 100 | O=C(c1nc(-c2ccccc2)cs1)N1CCC(c2ccccn2)C1 (stereo in doubt) |
| > 100 | C1=NC2(CCc3ccc(-c4ccccc4)cc3C2)CN1 (stereo in doubt) |
| 15 | C1=NC2(CCc3ccc(-c4ccccc4)cc3C2)CN1 (stereo in doubt; 1) |

Reference: ChEMBL document CHEMBL4602622, “Serendipitous discovery of aryl boronic acids as β-lactamase inhibitors” (Bioorg Med Chem Lett, 2020)
